These results are taken from ChEMBL document CHEMBL1137808, “Biologically active proteins from natural product extracts” (J Nat Prod, 2001).

Usually EC50 stands for the concentration at which the effect is half-maximal.

Converted amounts (≈) assume the structure as drawn. Bridge positions count the residues as written; N and C are the ends. Peptide text beside a SMILES is read from it.

One test has as its system Human immunodeficiency virus 1. Briefly: Antiviral activity against HIV1. The test is classed as functional, organism-based.
Conditions: not given
`CC[C@H](C)[C@@H]1NC(=O)[C@@H]2CSSC[C@@H]3NC(=O)[C@H](C(C)C)NC(=O)[C@H](CCCCN)NC(=O)[C@H](CC(N)=O)NC(=O)[C@H](CCCCN)NC(=O)[C@@H]4CSSC[C@H](NC(=O)[C@H](CO)NC(=O)[C@H](CCC(=O)O)NC(=O)CNC(=O)[C@H](CSSC[C@H](NC(=O)CNC(=O)[C@H](CC(C)C)NC(=O)[C@H](C)NC(=O)[C@H](C)NC(=O)[C@H](CO)NC1=O)C(=O)N[C@@H](CO)C(=O)N4)NC(=O)[C@@H]1CCCN1C(=O)[C@H]([C@@H](C)CC)NC(=O)CNC(=O)[C@H](CC(N)=O)NC(=O)[C@H](CCCNC(=N)N)NC(=O)[C@H](Cc1ccc(O)cc1)NC3=O)C(=O)N[C@@H](C(C)C)C(=O)N[C@@H](Cc1c[nH]c3ccccc13)C(=O)N[C@@H]([C@@H](C)CC)C(=O)N1CCC[C@H]1C(=O)N2` [CIRCULIN A] (cyclo(AALGCSCKNKVCYRNGIPCGESCVWIPCIS); disulfide 5-19, 7-23, 12-28): the EC50 is 40 nM.
The compound `CC[C@H](C)[C@@H]1NC(=O)[C@@H]2CSSC[C@@H]3NC(=O)[C@H](C(C)C)NC(=O)[C@H](CCCCN)NC(=O)[C@H](CC(N)=O)NC(=O)[C@H](CCCCN)NC(=O)[C@@H]4CSSC[C@H](NC(=O)[C@H](CO)NC(=O)[C@H](CCC(=O)O)NC(=O)CNC(=O)[C@H](CSSC[C@H](NC(=O)CNC(=O)[C@H](CC(C)C)NC(=O)[C@H](CC(C)C)NC(=O)[C@H]([C@@H](C)O)NC(=O)[C@H](CO)NC1=O)C(=O)N[C@@H](CO)C(=O)N4)NC(=O)[C@@H]1CCCN1C(=O)[C@H]([C@@H](C)CC)NC(=O)[C@H](C(C)C)NC(=O)CNC(=O)[C@H](CC(N)=O)NC(=O)[C@H](CCCNC(=N)N)NC(=O)[C@H](Cc1ccc(O)cc1)NC3=O)C(=O)N[C@@H](C(C)C)C(=O)N[C@@H](Cc1ccccc1)C(=O)N[C@@H]([C@@H](C)CC)C(=O)N1CCC[C@H]1C(=O)N2` [CIRCULIN B] (cyclo(CGESCVFIPCISTLLGCSCKNKVCYRNGVIP); disulfide 1-17, 5-19, 10-24) gave an EC50 of 40 nM.
`CC[C@H](C)[C@@H]1NC(=O)[C@@H]2CSSC[C@@H]3NC(=O)[C@H](C(C)C)NC(=O)[C@H](CCCCN)NC(=O)[C@H](CO)NC(=O)[C@H](CCCCN)NC(=O)[C@@H]4CSSC[C@H](NC(=O)[C@H](CO)NC(=O)[C@H](CCC(=O)O)NC(=O)CNC(=O)[C@H](CSSC[C@H](NC(=O)CNC(=O)[C@H](C)NC(=O)[C@H](C(C)C)NC(=O)[C@H](CO)NC(=O)[C@H]([C@@H](C)O)NC1=O)C(=O)N[C@@H](CO)C(=O)N4)NC(=O)[C@@H]1CCCN1C(=O)[C@H]([C@@H](C)CC)NC(=O)CNC(=O)[C@H](CC(N)=O)NC(=O)[C@H](CCCNC(=N)N)NC(=O)[C@H](Cc1ccc(O)cc1)NC3=O)C(=O)N[C@@H](C(C)C)C(=O)N[C@@H](Cc1ccccc1)C(=O)N[C@@H]([C@@H](C)CC)C(=O)N1CCC[C@H]1C(=O)N2` [CIRCULIN C] (cyclo(AGCSCKSKVCYRNGIPCGESCVFIPCITSV); disulfide 3-17, 5-21, 10-26) gave an EC50 of 40 nM.
As to `CC[C@H](C)[C@@H]1NC(=O)[C@H](CO)NC(=O)[C@H]([C@@H](C)O)NC(=O)[C@H](Cc2ccc(O)cc2)NC(=O)[C@@H]2CSSC[C@@H]3NC(=O)[C@H](C(C)C)NC(=O)[C@H](CCCCN)NC(=O)[C@H](CC(N)=O)NC(=O)[C@H](CCC(=O)O)NC(=O)[C@@H]4CSSC[C@H](NC(=O)[C@H](CO)NC(=O)[C@H](CCC(=O)O)NC(=O)CNC(=O)[C@H](CSSC[C@H](NC(=O)[C@H](CC(N)=O)NC(=O)[C@H](Cc5ccccc5)NC1=O)C(=O)N[C@@H](CCCCN)C(=O)N4)NC(=O)[C@@H]1CCCN1C(=O)[C@H]([C@@H](C)CC)NC(=O)[C@H](CCCCN)NC(=O)[C@H](CC(=O)O)NC(=O)[C@H](Cc1cnc[nH]1)NC(=O)[C@H](Cc1ccc(O)cc1)NC3=O)C(=O)N[C@@H](C(C)C)C(=O)N[C@@H](Cc1c[nH]c3ccccc13)C(=O)N[C@@H]([C@@H](C)CC)C(=O)N1CCC[C@H]1C(=O)N2` [CIRCULIN D] (cyclo(CENKVCYHDKIPCGESCVWIPCYTSIFNCK); disulfide 1-17, 6-22, 13-29), the EC50 came to 40 nM.
As to `CC[C@H](C)[C@@H]1NC(=O)[C@H](CCCCN)NC(=O)[C@H](CC(=O)O)NC(=O)[C@H](Cc2cnc[nH]2)NC(=O)[C@H](Cc2ccc(O)cc2)NC(=O)[C@@H]2CSSC[C@@H]3NC(=O)[C@@H]4CCCN4C(=O)[C@H]([C@@H](C)CC)NC(=O)[C@H](Cc4c[nH]c5ccccc45)NC(=O)[C@H](C(C)C)NC(=O)[C@@H]4CSSC[C@H](NC(=O)[C@H](CCCCN)NC(=O)[C@H](CSSC[C@H](NC(=O)[C@@H]5CCCN5C1=O)C(=O)NCC(=O)N[C@@H](CCC(=O)O)C(=O)N[C@@H](CO)C(=O)N4)NC(=O)[C@H](CC(N)=O)NC(=O)[C@H](Cc1ccccc1)NC(=O)[C@H](C(C)C)NC(=O)[C@H](CO)NC(=O)[C@H]([C@@H](C)O)NC(=O)[C@H](CC(C)C)NC3=O)C(=O)N[C@@H](CCC(=O)O)C(=O)N[C@@H](CC(N)=O)C(=O)N[C@@H](CCCCN)C(=O)N[C@@H](C(C)C)C(=O)N2` [CIRCULIN E] (cyclo(CENKVCYHDKIPCGESCVWIPCLTSVFNCK); disulfide 1-17, 6-22, 13-29), the EC50 worked out at 40 nM.
Still for that read-out and setting: as for `CC[C@H](C)[C@@H]1NC(=O)[C@H](C)NC(=O)[C@H](C)NC(=O)[C@H](CO)NC(=O)[C@H]([C@@H](C)CC)NC(=O)[C@@H]2CSSC[C@@H]3NC(=O)[C@H](C(C)C)NC(=O)[C@H](CCCCN)NC(=O)[C@H](CC(N)=O)NC(=O)[C@H](CCCCN)NC(=O)[C@@H]4CSSC[C@H](NC(=O)[C@H](CO)NC(=O)[C@H](CCC(=O)O)NC(=O)CNC(=O)[C@H](CSSC[C@H](NC(=O)CNC1=O)C(=O)N[C@@H](CO)C(=O)N4)NC(=O)[C@@H]1CCCN1C(=O)[C@H]([C@@H](C)CC)NC(=O)[C@H](C)NC(=O)[C@H](CCCNC(=N)N)NC(=O)[C@H](Cc1ccc(O)cc1)NC3=O)C(=O)N[C@@H](C(C)C)C(=O)N[C@@H](Cc1c[nH]c3ccccc13)C(=O)N[C@@H]([C@@H](C)CC)C(=O)N1CCC[C@H]1C(=O)N2` [CIRCULIN F] (cyclo(AAIGCSCKNKVCYRAIPCGESCVWIPCIS); disulfide 5-18, 7-22, 12-27), the figure is 40 nM.

A further test deals with Human immunodeficiency virus. Briefly: Antiviral activity against HIV infected in human MOLT4 cells assessed as inhibition of virus-induced cytopathic effect. It counts as functional, organism-based. The following applies: Human immunodeficiency virus 1, MOLT-4. (Damage to the host cells serves as the signal in cytopathic effect assays.)
Take `CC(C)[C@@H]1NC(=O)[C@H](CCCNC(=N)N)NC(=O)[C@H](Cc2ccccc2)NC(=O)[C@@H](NC(=O)[C@H](Cc2c[nH]c3ccccc23)NC(=O)[C@H](CCCNC(=N)N)NC(=O)[C@@H](N)CCCNC(=N)N)CSSC[C@@H]2NC(=O)[C@H](Cc3ccccc3)NC(=O)CNC(=O)[C@H](CCCCN)NC(=O)[C@H](Cc3ccc(O)cc3)NC(=O)[C@H](CSSC[C@@H](C(=O)N[C@@H](CCCNC(=N)N)C(N)=O)NC(=O)[C@H](CCCCN)NC(=O)[C@H](CCCNC(=N)N)NC(=O)[C@H](Cc3ccc(O)cc3)NC2=O)NC1=O` [POLYPHEMUSIN II] (H-RRWCFRVCYKGFCYRKCR-NH2; disulfide 4-13, 8-17): the 50% effective concentration (EC50) was 8 ng/mL (≈ 3.3 nM).
